Measured values taken from patent US7094869B2, “Low molecular weight peptidomimetic growth hormone secretagogues” (Genentech, Inc., priority 1994, dated 2006).
“Also recorded” adds a separate entry of the source.

How the values were obtained:
[1] = system: growth hormone secretion; experiment: GHRP induced growth hormone secretion, intravenous administration (Rat IV); type: in vivo
In short: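 Female Sprague Dawley rats (24-30 days, 50-90 g) under intraperitoneal pentobarbitone received graded intravenous tail-vein peptide doses in pH 5.0 sodium acetate/mannitol buffer 20 min post-anaesthesia. Blood by cardiac puncture 10 min after dosing; serum GH measured by rat GH ELISA in duplicate.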

[2] = target: rat pituitary cells (Rattus norvegicus, UniProt O08725); experiment: Rat “pit” cell challenges: combinations with GHRP-6/GHRH, desensitization, somatostatin suppression, GHRP antagonist; type: cell-based
Procedure: Dispersion: Adult female Sprague-Dawley (160-180 g., Charles River) rats were group-caged in a 12:12 light:dark cycle with food and water available ad libitum. Pituitaries from ten rats were removed, the posterior pituitary discarded and the anterior pituitary placed in Hanks' Balanced Salt Solution (HBSS: without calcium chloride, w/o magnesium chloride, w/o magnesium sulfate; Gibco) containing 20 mM HEPES (Gibco) and 100 U/ml penicillin streptomycin (PS: JRH Biosciences). Under sterile conditions, pituitaries were rinsed twice then minced into small fragments with a razor blade. Fragments were resuspended in 5 ml of HBSS/HEPES containing 20 mg collagenase (Serva 17449) and 200 ml of 1 mg/ml DNase (Sigma) for a 40 min. incubation in a 37° C. gyrotory water bath shaker (New Brunswick Scientific Model G76; setting 10). After the incubation, fragments were triturated to yield small clumps and single cells. The cells were centrifuged 1000× g for 5 min, resuspended, counted and plated at a final cell concentration of 100,000 cells/ml. Incubation media was DME low glucose media w/NaHCO3 (Gibco) containing 20 mM hepes, 100 U/ml PS and 10% FBS (Hyclone A-111-L). Cells were plated at 0.5 ml per well in 48 well plates (Falcon) and incubated at 37° C. in 5% C02 for three days. […] The highest concentration of DMSO in media was 0.1%. Stock solutions (1 mM) of rat GHRH, somatostatin (Sigma) and GHRP antagonist HwkWfK were made fresh in media and diluted appropriately. The media used in all challenges and washing steps was DME low glucose with 20 mM Hepes, 100 U/ml PS, 10% FBS. Media was warmed to 37° C. and gassed by placing it into the incubator prior to challenge. On day three, the media was discarded and fresh media (approximately 1 ml) added for the first of three washes. After the last wash, the plate was placed back in the incubator for a 15 min pre-incubation. Then cells were washed 2× (with warmed and gassed media) and fresh 0.5 ml media were added for the second 15 min. pre-incubation. After the second pre-incubation cells were washed 2× as above and 0.5 ml of control and test solutions were added for a final 15 min incubation. After this incubation, the media were removed for subsequent GH ELISA. GH ELISA: A two-site ELISA was used to determine rat GH concentration in the media. Briefly, goat anti-rat GH antibody (lot#19164-20) was used to coat Nunc immunoplates overnight. After blocking and washing, standard (rat GH reference preparation: Parlow) and challenge media is diluted 1:20 prior to GH assay were added for a 1 hr room temperature incubation. STATISTICS: The mean for each group was determined and analyzed by one-way analysis of variance with a post-hoc Student-Newman-Keuls. Significance is defined as P<0.05. The EC50 was calculated using a 4-parameter curve-fit program (Kaleidagraph). Three to four independent EC50s were used to derive the mean and SEM.

[3] = system: LH; experiment: LH release from pituitary cells (RIA); type: cell-based, rat; settings: 100 nM; listed as (inip)-bbFK-NH2
Procedure: Dispersion: Adult female Sprague-Dawley (160-180 g., Charles River) rats were group-caged in a 12:12 light:dark cycle with food and water available ad libitum. Pituitaries from ten rats were removed, the posterior pituitary discarded and the anterior pituitary placed in Hanks' Balanced Salt Solution (HBSS: without calcium chloride, w/o magnesium chloride, w/o magnesium sulfate; Gibco) containing 20 mM HEPES (Gibco) and 100 U/ml penicillin streptomycin (PS: JRH Biosciences). Under sterile conditions, pituitaries were rinsed twice then minced into small fragments with a razor blade. Fragments were resuspended in 5 ml of HBSS/HEPES containing 20 mg collagenase (Serva 17449) and […] of 1 mg/ml DNase (Sigma) for a 40 min. incubation in a 37° C. gyrotory water bath shaker (New Brunswick Scientific Model G76; setting 10). […] The cells were centrifuged 1000× g for 5 min, resuspended, counted and plated at a final cell concentration of 100,000 cells/ml. […] STATISTICS: The mean for each group was determined and analyzed by one-way analysis of variance with a post-hoc Student-Newman-Keuls. […] The EC50 was calculated using a 4-parameter curve-fit program (Kaleidagraph). […] RIA of pituitary hormones: LH, FSH, TSH, and Prolactin were determined with commercially available kits from Amersham, and ACTH levels were determined by a RIA kit from ICN. […]

[4] = system: ACTH; experiment: ACTH release from pituitary cells (RIA); type: cell-based, rat; settings: 100 nM
Procedure: Dispersion: Adult female Sprague-Dawley (160-180 g., Charles River) rats were group-caged in a 12:12 light:dark cycle with food and water available ad libitum. Pituitaries from ten rats were removed, the posterior pituitary discarded and the anterior pituitary placed in Hanks' Balanced Salt Solution (HBSS: without calcium chloride, w/o magnesium chloride, w/o magnesium sulfate; Gibco) containing 20 mM HEPES (Gibco) and 100 U/ml penicillin streptomycin (PS: JRH Biosciences). Under sterile conditions, pituitaries were rinsed twice then minced into small fragments with a razor blade. Fragments were resuspended in 5 ml of HBSS/HEPES containing 20 mg collagenase (Serva 17449) and […] of 1 mg/ml DNase (Sigma) for a 40 min. incubation in a 37° C. gyrotory water bath shaker (New Brunswick Scientific Model G76; setting 10). After the incubation, fragments were triturated to yield small clumps and single cells. The cells were centrifuged 1000× g for 5 min, resuspended, counted and plated at a final cell concentration of 100,000 cells/ml. Incubation media was DME low glucose media w/NaHCO3 (Gibco) containing 20 mM hepes, 100 U/ml PS and 10% FBS (Hyclone A-111-L). Cells were plated at 0.5 ml per well in 48 well plates (Falcon) and incubated at 37° C. in 5% C02 for three days. For challenges to determine release of other pituitary hormones cells were plated at 200,000 cells per ml with 2 ml per well of a Swell plate (Corning). Challenge: A (inip)bbFK-NH2 stock (or other GHRP) concentration of 1 mM was made in DMSO and diluted with warmed media approximately 30 min prior to use. The highest concentration of DMSO in media was 0.1%. […] STATISTICS: The mean for each group was determined and analyzed by one-way analysis of variance with a post-hoc Student-Newman-Keuls. […] The EC50 was calculated using a 4-parameter curve-fit program (Kaleidagraph). […] RIA of pituitary hormones: LH, FSH, TSH, and Prolactin were determined with commercially available kits from Amersham, and ACTH levels were determined by a RIA kit from ICN. […]

[5] = system: pituitary cells; experiment: Calcium flux experiment (Indo-1 AM loaded pituitary cells); type: cell-based, rat; settings: 10 nM, 21 seconds after addition
[6] = GHRP induced dose dependent weight gain in rats (sc minipump infusion, 14 days); type: in vivo, rat
Procedure: Rat GHRH (1-43) was dissolved in the same buffer at 25 g/l.
The next day these osmotic pumps were inserted into rats.
Serum chemistries were measured by standard automated procedures.

[7] = high dose (inip) b b F K-NH2 100 μg/day, GHRH 600 μg/day, 14 d infusion

Sequence of rat pituitary cells (O08725 whole entry): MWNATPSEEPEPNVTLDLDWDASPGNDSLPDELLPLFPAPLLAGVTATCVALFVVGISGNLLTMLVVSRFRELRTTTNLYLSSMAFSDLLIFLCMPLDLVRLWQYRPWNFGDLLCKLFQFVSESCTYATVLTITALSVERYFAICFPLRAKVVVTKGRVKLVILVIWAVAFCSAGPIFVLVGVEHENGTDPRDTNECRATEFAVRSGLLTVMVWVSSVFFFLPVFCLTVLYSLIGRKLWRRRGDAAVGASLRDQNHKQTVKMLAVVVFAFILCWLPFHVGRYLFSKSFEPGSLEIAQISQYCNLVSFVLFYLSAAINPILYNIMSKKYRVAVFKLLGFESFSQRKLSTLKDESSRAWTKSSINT

SMILES: NCCCC[C@H](NC(=O)[C@H](Cc1ccccc1)NC(=O)[C@@H](Cc1ccc2ccccc2c1)NC(=O)[C@@H](Cc1ccc2ccccc2c1)NC(=O)C1CCNCC1)C(N)=O [(inip) b b F K amide, (inip)-DβNal-DβNal-Phe-Lys-amide]
- RAT IV ED50 ([1]; Table III, iv injection, serum GH 10 min after injection): 0.2 µg
- ED50 for induction of GH secretion ([1]; acute intravenous injection, 80 gram rats, doses 1.0, 0.2, 0.04 μg/injection): 0.2 μg/rat
- increase in GH levels over control ([2]; 100 nM): 3 fold
- GH release in combination with GHRH ([2]; GHRP 100 nM plus GHRH 10 or 100 nM, listed as (inip)-bbFK-NH2): show synergy with 10 nM GHRH; also recorded: showed synergy with GHRH
- GH release in combination with GHRP-6 ([2]; both at 100 nM, listed as (inip)-bbFK-NH2): no additional or synergistic increase was observed; also recorded: no additional increase was observed
- GH release in the presence of 20 nM somatostatin ([2]; coincubation with 20 nM somatostatin, listed as (inip)-bbFK-NH2): suppressed this enhanced release
- GH release after sequential 15 min incubations with fresh compound (desensitization) ([2]; three sequential 15 min incubations, 100 nM): no significant GH release compared to control
- LH release [3]: had no effect on these hormone concentrations; also recorded: unchanged
- ACTH release ([4]; listed as (inip)-bbFK-NH2): unchanged
- ACTH release ([4]; listed as (inip)bbFK-NH2): no significant change
- Ca++ flux ([5]; listed as (inip)-bbFK-NH2): increased Ca flux
- Ca++ flux ([5]; listed as (inip)bbFK-NH2): increased C^++ flux
- epiphyseal plate width ([6]; 14 d infusion): no statistically significant increase
- pituitary and kidney weight ([6]; 14 d infusion): not affected
- heart weight compared to excipient ([6]; high dose 100 μg/day, GHRH 600 μg/day): tended to be increased
- liver weight ([6]; high dose (100 μg/day), 14 d infusion): 10.14 ± 0.29 g
- spleen weight [6, 7]: 628 ± 26 mg
- thymus weight [6, 7]: 584 ± 34 mg
- liver weight ([6]; low dose (4 μg/day), 14 d infusion): 9.40 ± 0.37 g
- liver weight ([6]; medium dose (20 μg/day), 14 d infusion): 9.70 ± 0.29 g
- body weight gain compared to excipient ([6]; sc minipump 14 days, (inip) b b F K-NH2 4, 20, 100 μg/d, GHRH 600 μg/d, 90 day old female rats): dose-related weight gain; also recorded: significant body weight and organ weight gain
